Assay results as given in patent US11623932B2, “Protein degraders and uses thereof” (Kymera Therapeutics, Inc., priority 2017, dated 2023).

What was measured:
[1] = target: Untagged CRBN-DDB1 complex (Homo sapiens (Human), UniProt Q96SW2); experiment: Fluorescence polarization (FP) assay, displacement of Cy5-labeled thalidomide; type: binding; details: Cy5-labeled thalidomide 20 nM, 10 min at room temperature
Description: The final solution contained 50 mM HEPES, 200 mM NaCl and 2 mM DTT, pH 7.5. The mixtures were incubated at room temperature for 10 min. The FP signals were recorded on an EnVision plate reader (Perkin Elmer) using the following settings: Excitation Light (%): 100; Measurement Height: 12; G-Factor: 1; Detector Gain 1: 500; Detector Gain 2: 500; Flash Number: 100. Dose-dependent loss of FP signals was fitted by four-parameter Logistic Function using GraphPad Prism 7.0 and the IC50 values were reported for each compound.
The compound numbers correspond to the compound numbers in the examples.

BRD4 = BRD4 (Homo sapiens (Human), UniProt O60885); experiment: BRD4 degradation in NAMALWA cells, Western Blot; type: cell-based; details: 2 h

Chain of Untagged CRBN-DDB1 complex (Q96SW2 whole entry): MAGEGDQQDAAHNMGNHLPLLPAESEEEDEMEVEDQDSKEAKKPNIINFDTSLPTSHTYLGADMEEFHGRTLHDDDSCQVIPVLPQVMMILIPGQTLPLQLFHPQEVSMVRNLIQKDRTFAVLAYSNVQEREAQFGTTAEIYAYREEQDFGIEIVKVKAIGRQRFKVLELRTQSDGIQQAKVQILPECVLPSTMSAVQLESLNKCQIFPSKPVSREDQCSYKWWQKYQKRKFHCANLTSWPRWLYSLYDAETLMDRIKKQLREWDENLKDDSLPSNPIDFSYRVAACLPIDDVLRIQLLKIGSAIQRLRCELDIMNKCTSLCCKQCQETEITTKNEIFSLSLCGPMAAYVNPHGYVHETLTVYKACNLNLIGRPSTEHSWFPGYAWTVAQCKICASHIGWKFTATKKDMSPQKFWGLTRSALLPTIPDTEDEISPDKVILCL
Chain of Untagged CRBN-DDB1 complex (Q16531 whole entry partner): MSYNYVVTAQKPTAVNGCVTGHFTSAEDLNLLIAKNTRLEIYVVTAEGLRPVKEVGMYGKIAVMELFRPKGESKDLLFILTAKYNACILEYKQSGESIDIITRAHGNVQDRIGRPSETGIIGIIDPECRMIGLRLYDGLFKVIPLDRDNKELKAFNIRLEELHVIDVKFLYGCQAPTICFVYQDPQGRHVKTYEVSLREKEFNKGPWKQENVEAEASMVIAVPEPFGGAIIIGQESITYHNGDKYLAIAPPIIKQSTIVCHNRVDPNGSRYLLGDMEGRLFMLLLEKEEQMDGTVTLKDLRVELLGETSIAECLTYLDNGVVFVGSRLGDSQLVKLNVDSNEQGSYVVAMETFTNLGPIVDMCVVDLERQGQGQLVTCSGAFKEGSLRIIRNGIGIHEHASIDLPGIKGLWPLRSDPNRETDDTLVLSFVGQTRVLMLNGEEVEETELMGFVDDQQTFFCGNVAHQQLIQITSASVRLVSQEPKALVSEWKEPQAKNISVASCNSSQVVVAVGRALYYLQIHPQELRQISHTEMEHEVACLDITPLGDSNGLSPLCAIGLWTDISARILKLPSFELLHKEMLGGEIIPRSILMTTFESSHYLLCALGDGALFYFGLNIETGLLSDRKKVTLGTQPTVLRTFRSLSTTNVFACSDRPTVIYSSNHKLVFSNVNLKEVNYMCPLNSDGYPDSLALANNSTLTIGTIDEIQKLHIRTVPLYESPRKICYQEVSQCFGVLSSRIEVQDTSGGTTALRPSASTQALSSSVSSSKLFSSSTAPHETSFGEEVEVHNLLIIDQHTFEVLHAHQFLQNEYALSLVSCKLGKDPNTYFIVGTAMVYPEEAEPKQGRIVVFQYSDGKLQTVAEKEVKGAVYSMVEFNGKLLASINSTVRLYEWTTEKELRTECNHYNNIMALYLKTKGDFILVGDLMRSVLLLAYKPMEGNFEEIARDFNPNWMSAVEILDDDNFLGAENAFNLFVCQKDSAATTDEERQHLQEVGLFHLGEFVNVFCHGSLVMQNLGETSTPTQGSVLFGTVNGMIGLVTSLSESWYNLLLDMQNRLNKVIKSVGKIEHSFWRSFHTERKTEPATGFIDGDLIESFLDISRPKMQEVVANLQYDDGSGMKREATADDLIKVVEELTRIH

IC50 [1] | % BRD4 degradation (BRD4; 0.0003 uM) | % BRD4 degradation (BRD4; 0.001 uM) | SMILES | % BRD4 degradation (BRD4; 0.003 uM) | % BRD4 degradation (BRD4; 0.01 uM) | % BRD4 degradation (BRD4; 0.03 uM) | % BRD4 degradation (BRD4; 0.1 uM) | % BRD4 degradation (BRD4; 0.3 uM) | % BRD4 degradation (BRD4; 1 uM)
> 100 µM | – | – | O=C1CCC(N2C(=O)Cc3ccccc32)C(=O)N1 (stereo not drawn) [Compound 3, 3-(2-Oxo-2,3-dihydro-1H-indol-1-yl)piperidine-2,6-dione] | – | – | – | – | – | –
– | C (40 to 60 percent protein degradation) | C (40 to 60 percent protein degradation) | Cc1sc2c(c1C)C(c1ccc(Cl)cc1)=N[C@@H](CC(=O)NCCOCCOCCCc1cccc3c1n(C)c(=O)n3C1CCC(=O)NC1=O)c1nnc(C)n1-2 (stereo partly drawn) [Compound I-36, 2-((S)-4-(4-chlorophenyl)-2,3,9-trimethyl-6H-thieno[3,2-f][1,2,4]triazolo[4,3-a][1,4]diazepin-6-yl)-N-(2-(2-(3-(1-(2,6-dioxopiperidin-3-yl)-3-methyl-2-oxo-2,3-dihydro-1H-benzo[d]imidazol-4-yl)propoxy)ethoxy)ethyl)acetamide] | C (40 to 60 percent protein degradation) | C (40 to 60 percent protein degradation) | B (60 to 80 percent protein degradation) | B (60 to 80 percent protein degradation) | B (60 to 80 percent protein degradation) | B (60 to 80 percent protein degradation)
– | B (60 to 80 percent protein degradation) | B (60 to 80 percent protein degradation) | Cc1sc2c(c1C)C(c1ccc(Cl)cc1)=N[C@@H](CC(=O)NCCOCCOCCOCCn1c(=O)n(C3CCC(=O)NC3=O)c3ccccc31)c1nnc(C)n1-2 (stereo partly drawn) [Compound I-37, 2-((S)-4-(4-Chlorophenyl)-2,3,9-trimethyl-6H-thieno[3,2-f][1,2,4]triazolo[4,3-a][1,4]diazepin-6-yl)-N-(2-(2-(2-(2-(3-(2,6-dioxopiperidin-3-yl)-2-oxo-2,3-dihydro-1H-benzo[d]imidazol-1-yl)ethoxy)ethoxy)ethoxy)ethyl)acetamide] | A (greater than 80 percent protein degradation) | A (greater than 80 percent protein degradation) | A (greater than 80 percent protein degradation) | A (greater than 80 percent protein degradation) | A (greater than 80 percent protein degradation) | A (greater than 80 percent protein degradation)

SMILES | IC50 [1] | % BRD4 degradation (BRD4; 0.0003 uM) | % BRD4 degradation (BRD4; 0.001 uM) | % BRD4 degradation (BRD4; 0.003 uM) | % BRD4 degradation (BRD4; 0.01 uM) | % BRD4 degradation (BRD4; 0.03 uM) | % BRD4 degradation (BRD4; 0.1 uM) | % BRD4 degradation (BRD4; 0.3 uM) | % BRD4 degradation (BRD4; 1 uM)
Cc1sc2c(c1C)C(c1ccc(Cl)cc1)=N[C@@H](CC(=O)NCCOCCOCCCc1ccc3c(c1)n(C)c(=O)n3C1CCC(=O)NC1=O)c1nnc(C)n1-2 (stereo partly drawn) [Compound I-35, 2-((S)-4-(4-chlorophenyl)-2,3,9-trimethyl-6H-thieno[3,2-f][1,2,4]triazolo[4,3-a][1,4]diazepin-6-yl)-N-(2-(2-(3-(1-(2,6-dioxopiperidin-3-yl)-3-methyl-2-oxo-2,3-dihydro-1H-benzo[d]imidazol-5-yl)propoxy)ethoxy)ethyl)acetamide] | – | B (60 to 80 percent protein degradation) | A (greater than 80 percent protein degradation) | A (greater than 80 percent protein degradation) | A (greater than 80 percent protein degradation) | A (greater than 80 percent protein degradation) | A (greater than 80 percent protein degradation) | A (greater than 80 percent protein degradation) | A (greater than 80 percent protein degradation)
Cc1sc2c(c1C)C(c1ccc(Cl)cc1)=N[C@@H](CC(=O)NCCOCCOCCn1c(=O)n(C3CCC(=O)NC3=O)c3ccccc31)c1nnc(C)n1-2 (stereo partly drawn) [Compound I-38, 2-((S)-4-(4-chlorophenyl)-2,3,9-trimethyl-6H-thieno[3,2-f][1,2,4]triazolo[4,3-a][1,4]diazepin-6-yl)-N-(2-(2-(2-(3-(2,6-dioxopiperidin-3-yl)-2-oxo-2,3-dihydro-1H-benzo[d]imidazol-1-yl)ethoxy)ethoxy)ethyl)acetamide] | – | D (less than 40 percent protein degradation) | B (60 to 80 percent protein degradation) | A (greater than 80 percent protein degradation) | A (greater than 80 percent protein degradation) | A (greater than 80 percent protein degradation) | A (greater than 80 percent protein degradation) | A (greater than 80 percent protein degradation) | A (greater than 80 percent protein degradation)
